One series can be described thus: Solubility. It counts as physicochemical.
The subject of series [1] is gastric lesions from Indomethacin. As to the kind of experiment: Protective activity against gastric lesions due to Indomethacin. To be noted: oral; for Protective activity ED50 / ED50: Indomethacin 16 mg/kg orally; for Protective activity ED50: 240 min; for ED50: Rattus norvegicus, po, 4 h, read-out: Protective activity ED50. The format is in vivo, rats. The method, then:
The activity is defined as the dose in mg/kg of body weight to the animal, which prevents in 50% of the treated subjects arising of lesions due to Indomenthacin.
The protective preparations are administered orally in aqueous suspension.

In series [2] the test system is gastric secretion. In words: Comparison of antisecretive activity, rats with tied pylorus, oral aqueous suspension. The format is in vivo. To be noted: oral; for ED50: Rattus norvegicus, po, read-out: Antisecretive activity (dose which reduces the gastric secretion by 50%). On the procedure: (*)The antisecretive activity is defined as the dose in mg/kg of body
weight of the animal, which reduces the gastric secretion by 50%. The
evaluation is effected by considering the decrease in quantity of secrete
gastric juice as compared with controls. Rats of an average weight of 200
± 20 grams are employed of which the lower part of the stomach at the
level of the pylorus is tied to collect the gastric juice during the
indicated periods. The preparations are administered orally in the form o

The subject of series [3] is transit through the stomach and intestine. In words: Anti-spastic activity, vegetable carbon (charcoal) test, rate of transit through the stomach and intestine. It counts as in vivo, mice. The note with it: for Antispastic activity ED50: 120 min; for ED50: Mus musculus, 2 h; for Ratio 3/2: anti-secretive ED50 / anti-spastic ED50 (Table 3). On the procedure:
Particularly marked is the anti-spastic activity which the present compounds exercise on the entire digestive system. Measured in the mouse, using the vegetable carbon test (rate of transit through the stomach and intestine), this activity is in some cases comparatively greater than the anti-secretive activity (Table 3).
(*)The antispastic activity is measured in mice of an average weight of […]
± 3 g by administering a suspension of charcoal in gum arabic and
checking after two hours whether the charcoal has reached the initial
portion of the colon. In non-treated subjects the charcoal reaches this
transit of the charcoal. Evaluation of the results is effected as
ED50 in mg/kg body weight of the animal, i.e., the dose at which the […]

The test system of series [4] is gastric secretion. As to the kind of experiment: Anti-secretive activity in the rat by gastric stimulus, oral. It counts as in vivo. The note with it: oral (Table 1); for ED50: read-out: Activity B: anti-secretive activity ED50.
Experimental: *3 Anti-secretive activity in the rat by gastric stimulus, ED50 mg/k
Series [5] has as its system gastric secretion. In words: Anti-secretive activity in the rat with lig. pylorus, iv. The format is in vivo.
The nature of series [6]: Acute toxicity (DL50) in the mouse. The format is in vivo. To be noted: iv (Table 1); for LD50: in vivo, read-out: DL50 value. The text has this:
*1 DL50 in the mouse mg/kg iv.
Examples of differences between toxicity (DL50 in
the mouse) by intravenous administration and oral
administration in mg/kg. Variation in therapeutic

Where [7] appears, read: charcoal after two hours, orally (later Table 3).
The mark [8] stands for this setting: rat with lig. pylorus, iv (Table 1), read-out: Activity A: anti-secretive activity ED50.
Setting [9] is: po, charcoal after two hours, orally (later Table 3), read-out: Antispastic activity ED50.
Where [10] appears, read: Rattus norvegicus, iv, compared with anti-spastic activity (Table 3), read-out: Anti-secretive activity ED50.
[11] abbreviates: mouse, vegetable carbon test (Table 3), read-out: Anti-spastic activity ED50.
Setting [12] is: Rattus norvegicus, iv, read-out: Activity A: anti-secretive activity ED50.
Setting [13] is: rat with lig. pylorus, iv (Table 1).

Counter-ions that a name gives are not always drawn. Like-named read-outs stand apart in the source and are kept apart here. Some results are limits rather than exact numbers.

Broadly, the solubility is the concentration that dissolves in the medium under given conditions. High values mean a readily soluble substance, low ones a poorly soluble substance. For the compound `O=C(N[C@@H](Cc1c[nH]c2ccccc12)C(=O)[O-])OCc1ccc(Cl)cc1.[Na+]`, in “Solubility” (acetone), the Solubility in acetone result is given as “Highly soluble”. The Solubility in ethanol result in the series “Solubility” (ethanol) was “Highly soluble”. The Solubility in methanol result in “Solubility” (methanol) was “Highly soluble”. This compound returned a solubility in “Solubility” (water) of about 50 mg/mL.

Consider `[OH][Al]([OH])[OH]` [Aluminium hydroxide, reference compound], for which the Protective activity result in series [1] (136mg/kg) was “inactive”.

Take `O=C(N[C@@H](Cc1c[nH]c2ccccc12)C(=O)O)OCc1ccc([N+](=O)[O-])cc1` [CR 438 - Calcium salt]: the “Protective activity ED50” value in series [1] is recorded as over 1500 mg/kg/os. The “Antisecretive activity (dose which reduces the gastric secretion by 50%)” value with gastric secretion [2] (2.5 hrs, 150 min) is on record as 810 mg/kg; in the series with gastric secretion [2] (5 hrs, 300 min) it was 780 mg/kg; in the series with gastric secretion [2] (10 hrs, 600 min), 972 mg/kg. Moreover, in series [3] (setting [7]), the “Antispastic activity ED50” value is recorded as over 1000 mg/kg.

Consider `O=C(N[C@@H](Cc1c[nH]c2ccccc12)C(=O)O)OCc1ccc(Br)cc1` [CR 451 - Calcium salt], for which the “Protective activity ED50” value in series [1] is given as 392 mg/kg/os. Moreover, the “Antisecretive activity (dose which reduces the gastric secretion by 50%)” value in the series on gastric secretion [2] (2.5 hrs, 150 min) amounted to 233 mg/kg; with gastric secretion [2] (5 hrs, 300 min) it was 220 mg/kg; in the series with gastric secretion [2] (10 hrs, 600 min) it was 337 mg/kg; in the series with gastric secretion [2] (15 hrs, 900 min), 580 mg/kg. In series [3] (setting [7]), the “Antispastic activity ED50” value was determined as 393 mg/kg.

With `Cc1ccc(C(=O)N[C@@H](Cc2c[nH]c3ccccc23)C(=O)O)cc1` [CR 510 - Calcium salt], the “Protective activity ED50” value in series [1] turned out to be 390 mg/kg/os. The “Antisecretive activity (dose which reduces the gastric secretion by 50%)” value amounted to 602 mg/kg in the series on gastric secretion [2] (2.5 hrs, 150 min); 574 mg/kg in the series on gastric secretion [2] (5 hrs, 300 min); 521 mg/kg in the series with gastric secretion [2] (10 hrs, 600 min); 666 mg/kg with gastric secretion [2] (15 hrs, 900 min). For the same compound, the “Antispastic activity ED50” value in series [3] (setting [7]) is given as 725 mg/kg.

On to `O=C([O-])[O-].[Ca+2]` [Calcium carbonate, reference compound], for which the Protective activity entry in series [1] (140mg/kg) was “inactive”.

Take `O=C(N[C@@H](Cc1c[nH]c2ccccc12)C(=O)O)OCc1ccc([N+](=O)[O-])cc1` [Ex.12 (CR438), N-p-nitro-carbobenzoxy-L-tryptophane]: the ED50 worked out at 195 mg/kg in the series with gastric secretion [4]; 990 mg/kg in series [1]; 267 mg/kg in the series with gastric secretion [5] (setting [8]); 475 mg/kg in the series on gastric secretion [2] (2.5 h, 2.5 hrs); 560 mg/kg in the series on gastric secretion [2] (5 h, 5 hrs); 980 mg/kg in the series with gastric secretion [2] (10 h, 10 hrs). The ED50 with gastric secretion [2] (15 h, 15 hrs) is over 1500 mg/kg; in series [3] (setting [9]), 870 mg/kg. The LD50 in series [6] (iv) came out at 700 mg/kg.

As for `Nc1ccc(C(=O)N[C@@H](Cc2c[nH]c3ccccc23)C(=O)O)cc1` [Ex.28 (CR504), N-p-amino-benzoyl-L-tryptophane], the ED50 with gastric secretion [4] is 205 mg/kg; in series [1] it was over 1500 mg/kg; in the series on gastric secretion [5] (setting [8]), 960 mg/kg; in the series with gastric secretion [2] (2.5 h, 2.5 hrs), 1080 mg/kg; with gastric secretion [2] (5 h, 5 hrs), 1090 mg/kg; in the series with gastric secretion [2] (10 h, 10 hrs), 1490 mg/kg. For the same compound, the ED50 with gastric secretion [2] (15 h, 15 hrs) was over 2000 mg/kg; in series [3] (setting [9]), over 1000 mg/kg. Further, the LD50 in series [6] is 1670 mg/kg.

For `O=C(O)Cc1ccc(NC(=O)[C@H](Cc2c[nH]c3ccccc23)NC(=O)c2ccccc2)cc1` [Ex.41 (CR421), N-benzoyl-L-tryptophyl-p-aminophenylacetic acid], the ED50 in the series with gastric secretion [4] is 186 mg/kg; with gastric secretion [5] (setting [10]), 322 mg/kg; with gastric secretion [5] (setting [8]), 322 mg/kg; in series [3] (setting [11]), 170 mg/kg. In addition, in series [6], the LD50 was found to be 1000 mg/kg. Also, the “Ratio 3/2” value in series [3] was found to be 2.0.

With `O=C(Cc1ccc(Cl)cc1)N[C@@H](Cc1c[nH]c2ccccc12)C(=O)O` [Ex.47 (CR584), N-p-chlorophenylacetyl-L-tryptophane], the figures for the ED50 with gastric secretion [4] and with gastric secretion [5] (setting [8]) were 270 mg/kg and 487 mg/kg, respectively. Further, the LD50 in series [6] is 545 mg/kg.

For `CN(C)CCOC(=O)[C@H](Cc1c[nH]c2ccccc12)NC(=O)OCc1ccc(Cl)cc1` [Ex.48 (CR583), Dimethylaminoester of N-p-chlorocarbobenzoxy-L-trytophane hydrochloride], the ED50 with gastric secretion [4] was found to be 121 mg/kg; with gastric secretion [5] (setting [8]), 170 mg/kg. Moreover, the LD50 in series [6] (iv) was 210 mg/kg.

On to `CCN(CC)CCOC(=O)[C@H](Cc1c[nH]c2ccccc12)NC(=O)c1ccc(C)cc1` [Ex.49 (CR636), Diethylaminoethylester of N-p-toluyl-L-tryptophane oxalate], for which the ED50 turned out to be 120 mg/kg with gastric secretion [4] and 160 mg/kg in the series with gastric secretion [5] (setting [8]). For the same compound, in series [6], the LD50 was 320 mg/kg.

`O=C(N[C@@H](Cc1c[nH]c2ccccc12)C(=O)O)c1ccccc1Cl` [Ex.50 (CR617), N-o-chlorobenzoyl-L-tryptophane]: the ED50 in the series on gastric secretion [4] was found to be 255 mg/kg; in the series with gastric secretion [5] (setting [10]), 299 mg/kg; in the series with gastric secretion [5] (setting [8]) it was 299 mg/kg; in series [3] (setting [11]) it was 300 mg/kg. Moreover, in series [6], the LD50 was 1270 mg/kg. For the same compound, the “Ratio 3/2” value in series [3] was 1.

Turning to `O=C(N[C@H](Cc1c[nH]c2ccccc12)C(=O)O)c1ccccc1Cl` [Ex.52 (CR637), N-o-chlorobenzoyl-D-tryptophane], the figures for the ED50 in the series with gastric secretion [4] and in the series on gastric secretion [5] (setting [8]) were 390 mg/kg and 440 mg/kg, respectively. The LD50 in series [6] was found to be 1530 mg/kg.

Turning to `O=C(N[C@@H](Cc1c[nH]c2ccccc12)C(=O)O)OCc1cccc(Cl)c1` [Ex. 2 (CR527), N-m-chloro-carbobenzoxy-L-tryptophane], the ED50 in the series with gastric secretion [4] is 147 mg/kg; with gastric secretion [5] (setting [12]), 176 mg/kg. For the same compound, the LD50 in series [6] (iv) came to 450 mg/kg.

For the compound `O=C(N[C@@H](Cc1c[nH]c2ccccc12)C(=O)O)OCc1ccccc1Cl` [Ex. 3 (CR460), N-o-chloro-carbobenzoxy-L-tryptophane], the ED50 in the series on gastric secretion [4] was 267 mg/kg; with gastric secretion [5] (setting [10]) it was 118 mg/kg; in the series on gastric secretion [5] (setting [8]), 118 mg/kg; in series [3] (setting [11]), 58 mg/kg. Further, the LD50 in series [6] (iv) was 640 mg/kg. For the same compound, in series [3], the “Ratio 3/2” value is on record as 2.0.

On to `O=C(N[C@H](Cc1c[nH]c2ccccc12)C(=O)O)OCc1ccc(Cl)cc1` [Ex. 5 (CR630), N-p-chloro-carbobenzoxy-D-tryptophane], for which the ED50 with gastric secretion [4] was found to be 107 mg/kg; in the series with gastric secretion [5] (setting [12]), 142 mg/kg. The LD50 in series [6] (iv) came to 260 mg/kg.

`O=C(N[C@@H](Cc1c[nH]c2ccccc12)C(=O)O)OCc1ccc(I)cc1` [Ex. 7 (CR490), N-p-iodo-carbobenzoxy-L-tryptophane]: the values for the ED50 with gastric secretion [4] and in the series with gastric secretion [5] (setting [12]) were 94 mg/kg and 75 mg/kg, respectively. Moreover, the LD50 in series [6] (iv) came out at 166 mg/kg.

For `N#Cc1ccc(COC(=O)N[C@@H](Cc2c[nH]c3ccccc23)C(=O)O)cc1` [Ex. 8 (CR496), N-p-cyano-carbobenzoxy-L-tryptophane], the figures for the ED50 with gastric secretion [4] and with gastric secretion [5] (setting [12]) were 340 mg/kg and 202 mg/kg, respectively. The LD50 in series [6] (iv) was determined as 1070 mg/kg.

Consider “N-p-bromobenzoyl-L-tryptophyl-phenylacetic acid [Ex.45 (CR511)]”, for which the “Activity B: anti-secretive activity ED50” value in the series with gastric secretion [4] worked out at 281 mg/k. The “Activity A: anti-secretive activity ED50” value in the series with gastric secretion [5] (setting [13]) amounted to 246 mg/kg. Further, the DL50 value in series [6] was found to be 690 mg/kg.

Consider “N-p-chlorobenzoyl-L-tryptophyl-phenylacetic acid [Ex.46 (CR589)]”, for which, in the series with gastric secretion [4], the “Activity B: anti-secretive activity ED50” value was 120 mg/k. For the same compound, the “Activity A: anti-secretive activity ED50” value in the series with gastric secretion [5] (setting [13]) was 189 mg/kg. Moreover, the DL50 value in series [6] was 295 mg/kg.
